Source: patent US20110086759A1, “CHEMICAL COMPOUNDS” (SYNGENTA CROP PROTECTION, INC., priority 2007, published 2011)

Assays:
Type in all cases: in vivo
[1] = tested on: Alopecurus myosuroides (ALOMY); assay: Pre-emergence biological efficacy, glasshouse pot test; settings: 312 h
Summary of the method: (§1)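 Standard soil, pots, sown then sprayed at day 1 with 1000 or 250 g/ha test compound. Glasshouse: 24/16 °C, 14 h photoperiod, 65% humidity, twice-daily watering. Evaluation day 13, 0–100 damage score.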

[2] = tested on: Amaranthus retoflexus (AMARE); assay: as above; settings: Amaranthus retroflexus, 312 h
Summary of the method: as §1

[3] = tested on: Echinochloa crus-galli (ECHCG); assay: as above; settings: 312 h
Summary of the method: as §1

[4] = tested on: Ipomea hederaceae (IPOHE); assay: as above; settings: Ipomoea hederacea, 312 h
Summary of the method: as §1

Setaria faberi (SETFA) [5] = assay: as above; settings: 312 h
Summary of the method: as §1

Solanum nigrum (SOLNI) [6] = assay: as above; settings: 312 h
Summary of the method: as §1

[7] = tested on: Alopecurus myosuroides (ALOMY); assay: Post-emergence biological efficacy, glasshouse pot test; settings: 312 h
Summary of the method: (§2)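 Scored 13 days after spraying on a 0 (no damage) to 100 (total damage) scale. Treatment was a post-emergence spray at 1000 or 250 g/ha, from acetone/water 50:50 plus 0.5% Tween 20, onto 8-day-old plants in soil pots. Growth at 24/16° C, 14 h photoperiod, 65% humidity, watered twice daily.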

[8] = tested on: Amaranthus retoflexus (AMARE); assay: as above; settings: Amaranthus retroflexus, 312 h
Summary of the method: as §2

[9] = tested on: Echinochloa crus-galli (ECHCG); assay: as above; settings: 312 h
Summary of the method: as §2

[10] = tested on: Ipomea hederaceae (IPOHE); assay: as above; settings: Ipomoea hederacea, 312 h
Summary of the method: as §2

Setaria faberi (SETFA) [11] = assay: as above; settings: 312 h
Summary of the method: as §2

Solanum nigrum (SOLNI) [12] = assay: as above; settings: 312 h
Summary of the method: as §2

[13] = pre-emergence, rate 1,000 g/ha, evaluated after 13 days (100=total damage to plant; 0=no damage), read-out: Percentage damage caused to weed species, ALOMY
[14] = pre-emergence, rate 1,000 g/ha, evaluated after 13 days (100=total damage to plant; 0=no damage), read-out: Percentage damage caused to weed species, AMARE
[15] = pre-emergence, rate 1,000 g/ha, evaluated after 13 days (100=total damage to plant; 0=no damage), read-out: Percentage damage caused to weed species, ECHCG
[16] = pre-emergence, rate 1,000 g/ha, evaluated after 13 days (100=total damage to plant; 0=no damage), read-out: Percentage damage caused to weed species, IPOHE
[17] = pre-emergence, rate 1,000 g/ha, evaluated after 13 days (100=total damage to plant; 0=no damage), read-out: Percentage damage caused to weed species, SETFA
[18] = pre-emergence, rate 1,000 g/ha, evaluated after 13 days (100=total damage to plant; 0=no damage), read-out: Percentage damage caused to weed species, SOLNI
[19] = Rate 1,000 g/ha, post-emergence spray, evaluated after 13 days (100=total damage to plant; 0=no damage to plant), read-out: Percentage damage caused to weed species, post-emergence, ALOMY
[20] = Rate 1,000 g/ha, post-emergence spray, evaluated after 13 days (100=total damage to plant; 0=no damage to plant), read-out: Percentage damage caused to weed species, post-emergence, AMARE
[21] = Rate 1,000 g/ha, post-emergence spray, evaluated after 13 days (100=total damage to plant; 0=no damage to plant), read-out: Percentage damage caused to weed species, post-emergence, ECHCG
[22] = Rate 1,000 g/ha, post-emergence spray, evaluated after 13 days (100=total damage to plant; 0=no damage to plant), read-out: Percentage damage caused to weed species, post-emergence, IPOHE
[23] = Rate 1,000 g/ha, post-emergence spray, evaluated after 13 days (100=total damage to plant; 0=no damage to plant), read-out: Percentage damage caused to weed species, post-emergence, SETFA
[24] = Rate 1,000 g/ha, post-emergence spray, evaluated after 13 days (100=total damage to plant; 0=no damage to plant), read-out: Percentage damage caused to weed species, post-emergence, SOLNI
[25] = pre-emergence, 1,000 g/ha, evaluated after 13 days (100=total damage; 0=no damage), read-out: Percentage damage ALOMY
[26] = pre-emergence, 1,000 g/ha, evaluated after 13 days (100=total damage; 0=no damage), read-out: Percentage damage AMARE
[27] = pre-emergence, 1,000 g/ha, evaluated after 13 days (100=total damage; 0=no damage), read-out: Percentage damage ECHCG
[28] = pre-emergence, 1,000 g/ha, evaluated after 13 days (100=total damage; 0=no damage), read-out: Percentage damage IPOHE
[29] = pre-emergence, 1,000 g/ha, evaluated after 13 days (100=total damage; 0=no damage), read-out: Percentage damage SETFA
[30] = pre-emergence, 1,000 g/ha, evaluated after 13 days (100=total damage; 0=no damage), read-out: Percentage damage SOLNI
[31] = post-emergence, 1,000 g/ha, evaluated after 13 days (100=total damage; 0=no damage), read-out: Percentage damage caused to weed species, ALOMY
[32] = post-emergence, 1,000 g/ha, evaluated after 13 days (100=total damage; 0=no damage), read-out: Percentage damage caused to weed species, AMARE
[33] = post-emergence, 1,000 g/ha, evaluated after 13 days (100=total damage; 0=no damage), read-out: Percentage damage caused to weed species, ECHCG
[34] = post-emergence, 1,000 g/ha, evaluated after 13 days (100=total damage; 0=no damage), read-out: Percentage damage caused to weed species, IPOHE
[35] = post-emergence, 1,000 g/ha, evaluated after 13 days (100=total damage; 0=no damage), read-out: Percentage damage caused to weed species, SETFA
[36] = post-emergence, 1,000 g/ha, evaluated after 13 days (100=total damage; 0=no damage), read-out: Percentage damage caused to weed species, SOLNI

| Structure (SMILES) | pest or weed control at 1000 g/ha [1, 13] | pest or weed control at 1000 g/ha [2, 14] | pest or weed control at 1000 g/ha [3, 15] | pest or weed control at 1000 g/ha [4, 16] | pest or weed control at 1000 g/ha (Setaria faberi (SETFA) [5]; [17]) | pest or weed control at 1000 g/ha (Solanum nigrum (SOLNI) [6]; [18]) | pest or weed control at 1000 g/ha [7, 19] | pest or weed control at 1000 g/ha [8, 20] | pest or weed control at 1000 g/ha [1, 25] | pest or weed control at 1000 g/ha [2, 26] | pest or weed control at 1000 g/ha [3, 27] | pest or weed control at 1000 g/ha [4, 28] | pest or weed control at 1000 g/ha (Setaria faberi (SETFA) [5]; [29]) | pest or weed control at 1000 g/ha (Solanum nigrum (SOLNI) [6]; [30]) | pest or weed control at 1000 g/ha [7, 31] | pest or weed control at 1000 g/ha [8, 32] | pest or weed control at 1000 g/ha [9, 33] | pest or weed control at 1000 g/ha [10, 34] | pest or weed control at 1000 g/ha (Setaria faberi (SETFA) [11]; [35]) | pest or weed control at 1000 g/ha (Solanum nigrum (SOLNI) [12]; [36]) | other results |
| --- | --- | --- | --- | --- | --- | --- | --- | --- | --- | --- | --- | --- | --- | --- | --- | --- | --- | --- | --- | --- | --- |
| COC(=O)c1nc(C2CC2)nc(N(C)Cc2nonc2C)c1Cl [Compound 5-149, 5-Chloro-2-cyclopropyl-6-methoxycarbonyl-4-[N-methyl-N-(4-methyl-1,2,5-oxadiazol-3-ylmethyl)-amino]-pyrimidine] | 30% | 80% | 20% | 80% | 10% | 40% | 40% | 100% |  |  |  |  |  |  |  |  |  |  |  |  | pest or weed control at 1000 g/ha [9, 21]: 40%; pest or weed control at 1000 g/ha [10, 22]: 90%; pest or weed control at 1000 g/ha (Setaria faberi (SETFA) [11]; [23]): 80%; pest or weed control at 1000 g/ha (Solanum nigrum (SOLNI) [12]; [24]): 90% |
| COC(=O)c1nc(C2CC2)nc(NCc2cccc(F)c2)c1Cl [Compound 4-65, 5-Chloro-2-cyclopropyl-4-(3-fluorophenylmethyl-amino)-6-methoxycarbonyl-pyrimidine] |  |  |  |  |  |  |  |  | 20% | 80% | 60% | 70% | 40% | 80% | 20% | 100% | 80% | 100% | 100% | 100% |  |
| COC(=O)c1nc(C2CC2)nc(NCc2cc(F)cc(F)c2)c1Cl [Compound 4-100, 5-Chloro-2-cyclopropyl-4-(3,5-difluorophenylmeth-ylamino)-6-methoxy-carbonylpyrimidine] |  |  |  |  |  |  |  |  | 20% | 70% | 40% | 50% | 20% | 60% | 30% | 100% | 70% | 100% | 100% | 100% |  |
| COC(=O)c1nc(C2CC2)nc(NCc2ccc(C(C)C)cc2)c1Cl [Compound 4-74, 5-Chloro-2-cyclopropyl-4-(4-isopropylphenyl-methlamino)-6-methoxycarbonyl-pyrimidine] |  |  |  |  |  |  |  |  | 10% | 80% | 30% | 60% | 10% | 70% | 20% | 90% | 70% | 100% | 80% | 100% |  |
| COC(=O)c1nc(-c2ccc(Cl)c(C(F)(F)F)c2)nc(NCc2ccco2)c1Cl [Compound 217-48, 5-Chloro-2-(4-chloro-3-trifluoromethyl-phenyl)-4-(furan-2-ylmethylamino)-6-methoxycarbonyl-pyrimidine] | 20% | 20% | 0% | 0% | 20% | 50% | 10% | 80% |  |  |  |  |  |  |  |  |  |  |  |  | pest or weed control at 1000 g/ha [9, 21]: 0%; pest or weed control at 1000 g/ha [10, 22]: 30%; pest or weed control at 1000 g/ha (Setaria faberi (SETFA) [11]; [23]): 20%; pest or weed control at 1000 g/ha (Solanum nigrum (SOLNI) [12]; [24]): 70% |
| COC(=O)c1nc(C2CC2)nc(NCC(F)c2ccc(Br)cc2)c1Cl (stereo not drawn) [Compound 4-236, 4-[2-(4-Bromophenyl)-2-fluoro-ethylamino]-5-chloro-2-cyclopropyl-6-methoxycarbonyl-pyrimidine] |  |  |  |  |  |  |  |  | 0% | 0% | 0% | 0% | 0% | 60% | 0% | 100% | 0% | 60% | 40% | 70% |  |
